Assay results reported in patent US7230020B2, “11β-hydroxysteroid dehydrogenase inhibitors” (priority 2003, dated 2007).
Read-outs that look alike come from different tables or passages of the source.

Key:
[1] = target: T1, Human 11β HSD1 (Homo sapiens, UniProt P28845); assay: biochemical; assay type: biochemical; settings: for inhibition at 10 µM: read-out: % inhibition of Human 11β HSD1 @10 μM typical sd ± 5% N = 2
T1 construct: human hepatic microsomes were obtained from XenoTech, product H0610/Lot 0210078; tissue XenoTech H0610/Lot 0210078; host or cells: human liver (hepatic microsomes)
T1 sequence (P28845 whole entry): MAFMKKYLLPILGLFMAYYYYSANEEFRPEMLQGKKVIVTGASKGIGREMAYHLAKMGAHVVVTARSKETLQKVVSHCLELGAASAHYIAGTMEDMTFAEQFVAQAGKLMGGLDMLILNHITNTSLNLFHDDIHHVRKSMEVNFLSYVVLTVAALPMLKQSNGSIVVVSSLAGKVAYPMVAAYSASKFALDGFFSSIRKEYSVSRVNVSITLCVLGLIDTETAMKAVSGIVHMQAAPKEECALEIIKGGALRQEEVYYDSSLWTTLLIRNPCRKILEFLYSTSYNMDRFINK
Description: Standard Operating Procedure for the 11β-Hydroxysteroid Dehydrogenase Type 1 cortisol Radioimmunoassay (11β HSD1 Cortisol RIA).
30 mM Tris-HCL, pH 7.2 containing 1 mM EDTA.
50 mM Tris-HCL, pH 8, containing 0.1 M NaCl and 0.1% gelatin.
Prepare 10 mM stock solutions in 100% DMSO at 100 times the required assay concentration. Dilute into assay buffer 1 in 25. Also dilute neat DMSO 1 in 25 into assay buffer for controls.
Dilute this 1 in 50 into assay buffer.
Prepare NADPH as a 1.8 mg/ml solution in assay buffer.
Mix these 3solutions 1:1:1 to make a solution of sufficient volume for 25 μl additions to each sample. Add 0.5 μCi tritiated cortisone per 25 μl and mix the solution well.
Dilute stock 20 mg/ml solution 1 in 100 with assay buffer.
Dilute stock antibody solution to 17 μg/ml in antibody binding buffer.
Make a 20 mg/ml solution in antibody binding buffer and chill on ice.
To a u-bottom polypropylene 96 well plate add: • 25 μl compound dilution or diluted DMSO to controls, NSB's and blanks • 10 μl 1 mM GA in DMSO (enzyme stop solution) to blanks • 25 μl substrate mixture to all samples • 50 μl diluted microsomes to all samples • Incubate plate for 30 min at 37° C. shaking p0 Add 10 μl enzyme stop solution to all wells except the blanks • Add 100 μl antibody solution to all wells except the NSB's, add antibody binding buffer to these wells • Incubate at 37° C. for 1 h • Chill plate on ice for 15 min • Add 50 μl/well charcoal solution and mix with an 8-channel pipette (4-5 aspirations) • Chill the plate on ice • Centrifuge at 4° C., 2000×g for 15 min • Transfer 100 μl supernatant into an Optiplate, also add 25 μl substrate mixture to 2 empty wells to indicate counting efficiency • Add 200 μl Microscint-40 to all wells and count on a Topcount Radioimmunoassay
The 11β HSD1 enzyme assay was carried out following the standard operating procedure described above in u-bottom polypropylene 96 well plates or 1.5 ml Eppendorf tubes as indicated for each experiment. Subsequent to stopping the enzyme reaction, 100 μl antibody prepared in buffer 3 unless otherwise indicated was added to test samples and 100 μl buffer 3 was added to the NSB samples. The samples were incubated for 1 hour at 37° C. and the chilled on ice for 15 mins. Dextran coated charcoal (50 μl/sample) prepared to the indicated concentration in buffer 3 was added and the samples were mixed (vortex for tubes and aspiration 5 times with an 8-channel pipette for 96 well plates) and chilled for a further 10 min. The samples were centrifuged at 2000×g for 15 min at 4° C. to pellet the charcoal. Aliquots of the supernatant (100 μl) were transferred to an Optiplate and counted on the Topcount in 150-200 μl Microscint 40. In some experiments, aliquots of supernatant were transferred to scintillation vials and counted on the Tricarb LSC in 5 ml Ultima Gold scintillant.

[2] = compound 10 μM, human hepatic microsomes, cortisone 175 nM, typical sd ± 5%, N = 2

Row | SMILES | melting point [°C] | inhibition at 10 µM [1] [%] | other results
1 | CCCc1ccc(C(=O)Nc2ccc3c(c2)nc(C)n3C)cc1 | 214 to 218 |  | 
2 | CC1Nc2cc(NC(=O)c3ccc(-c4ccccc4)cc3)ccc2N1C (stereo not shown) | 272 to 274 |  | 
3 | Cc1cc(NS(=O)(=O)c2ccc(N)c(Cl)c2)no1 [compound 654] |  | 32.1 | 
4 | CCCc1ccc(C(=O)Nc2ccc(C(C)=O)cc2)cc1 | 174 to 176 |  | 
5 | CC(=O)c1ccc(NC(=O)c2cc(Cl)cc(Cl)c2)cc1 | 199 to 200 |  | 
6 | CC(=O)Nc1ccc(S(=O)(=O)Nc2cc(C)on2)cc1 [compound 606] |  |  | inhibition at 10 µM [1, 2]: 22.1%
7 | CCCc1ccc(C(=O)Nc2ccc3c(c2)CCC3=O)cc1 | 181 to 184 |  | 
8 | Cc1cc(NS(=O)(=O)c2cc(Cl)ccc2Cl)no1 [compound 823] |  | 42.9 | 
9 | CCCc1ccc(S(=O)(=O)NCc2ccccn2)cc1 | 109 |  | 
10 | COc1ccc(C(=O)NCCc2cccs2)cc1 | 109 to 111 |  | 
11 | CCCc1ccc(S(=O)(=O)Nc2ccc3nc(C)ccc3c2)cc1 [compound 936] |  | 42.3 | 
12 | COc1cccc(C(=O)Nc2ccc3c(c2)CCCC3=O)c1 | 142 to 143 |  | 
13 | Cc1cc(NS(=O)(=O)c2cccc(Cl)c2C)no1 [compound 825] |  | 23.2 | 
14 | CCCc1ccc(C(=O)Nc2ccc3sc(C)nc3c2)cc1 [compound 471] |  | 53.7 | 
15 | CCCc1ccc(S(=O)(=O)N(CC2CCNCC2)S(=O)(=O)c2ccc(CCC)cc2)cc1 [compound 576] |  |  | inhibition at 10 µM [1, 2]: 47.7%
16 | COC(=O)c1cc2cc(NS(=O)(=O)c3cccc(Cl)c3C)ccc2o1 [compound 973] |  | 33.1 | 
17 | COc1ccc(S(=O)(=O)Nc2ccc(S(=O)(=O)Nc3nc(C)cc(C)n3)cc2)cc1OC [compound 558] |  | 31.2 | 
18 | CC(=O)Nc1nsc2ccc(NS(=O)(=O)c3cccc(Cl)c3C)cc12 [compound 929] |  | 31 | 
19 | O=S(=O)(NCCO)c1ccc(NS(=O)(=O)c2ccc(Cl)cc2Cl)cc1 [compound 653] |  | 36.4 | 
20 | Cc1c(Cl)cccc1S(=O)(=O)Nc1ccc2c(c1)C(=O)N(C)C2=O [compound 979] |  | 54.1 | 
21 | COc1ccc(CC(=O)Nc2ccc3sc(C)nc3c2Cl)cc1 | 173 to 174 |  | 
22 | O=C(NCCc1cccs1)c1cc(Cl)ccc1Cl | 99 to 100 |  | 
23 | COc1ccc(S(=O)(=O)Nc2ccc(S(=O)(=O)NCCO)cc2)cc1 [compound 646] |  | 48.5 | 
24 | COc1cccc(C(=O)Nc2ccc(C(=O)c3ccccc3)cc2)c1 | 139 to 141 |  | 

Row | SMILES | melting point [°C] | inhibition at 10 µM [1] [%] | other results
25 | Cc1c(Cl)cccc1S(=O)(=O)Nc1ccc2c(c1)-c1ccccc1C2=O [compound 1033] |  | 62.6 | 
26 | CC1Nc2ccc(NC(=O)c3ccc(-c4ccccc4)cc3)cc2N1C (stereo not shown) | 270 to 270.3 |  | 
27 | CCCc1ccc(S(=O)(=O)Nc2ccc3nc(C)cnc3c2)cc1 [compound 956] |  | 64.8 | 
28 | CCCc1ccc(C(=O)Nc2ccc3sc(C)nc3c2)cc1 | 148 to 149 |  | 
29 | O=S(=O)(Nc1ccc2oncc2c1)c1cc(Cl)ccc1Cl [compound 920] |  | 27.5 | 
30 | COc1ccc(C(=O)Nc2ccc(C(C)=O)cc2)cc1 | 222 to 223 |  | 
31 | Cc1cnc2cc(NS(=O)(=O)c3cccc(Cl)c3C)ccc2n1 | 163 to 164 |  | 
32 | COc1cccc(C(=O)Nc2ccc(C(C)=O)cc2)c1 | 152 to 154 |  | 
33 | COc1ccc(S(=O)(=O)Nc2ccc(S(=O)(=O)NCCO)cc2)cc1OC [compound 649] |  | 26.3 | 
34 | CCCc1ccc(S(=O)(=O)Nc2ccc(OC)nc2)cc1 | 93 to 94 |  | 
35 | O=C(Nc1ccc2c(c1)CCCC2=O)c1cc(Cl)cc(Cl)c1 | 226 to 228 |  | 
36 | Cc1nc2c(Cl)c(NC(=O)Cc3ccc(Cl)cc3Cl)ccc2s1 | 257 to 258 |  | 
37 | COc1ccc(C(=O)Nc2ccc(C(=O)c3ccccc3)cc2)cc1 | 171 to 174 |  | 
38 | COc1cccc(C(=O)Nc2ccc3c(c2)CCC3=O)c1 | 203 to 204 |  | 
39 | Cc1c(Cl)cccc1S(=O)(=O)Nc1ccc2occ(C)c2c1 [compound 972] |  | 59.2 | 
40 | COc1ccc(C(=O)Nc2ccc3c(c2)CCCC3=O)cc1 | 163 to 166 |  | 
41 | Cc1cnc2cc(NS(=O)(=O)c3cccc(Cl)c3C)ccc2n1 [compound 955] |  | 60.8 | 
42 | O=C(NCCc1cccs1)c1cc(Cl)cc(Cl)c1 | 100 to 102 |  | 
43 | CCCc1ccc(C(=O)N(C)c2ccc3sc(C)nc3c2)cc1 [compound 472] |  | 71.4 | 
44 | Cc1nc2cc(NC(=O)c3ccc(Cl)cc3Cl)ccc2n1C | 275 to 277 |  | 
45 | O=C(Nc1ccc2c(c1)CCC2=O)c1cc(Cl)ccc1Cl | 218 to 221 |  | 
46 | COc1cccc(NC(=O)Nc2ccc(S(=O)(=O)Nc3cc(C)on3)cc2)c1 [compound 556] |  | 46.2 | 
47 | COc1ccc(S(=O)(=O)Nc2ccc(S(=O)(=O)NCCOS(=O)(=O)c3ccc(OC)cc3)cc2)cc1 [compound 647] |  | 34.5 | 
48 | Cc1ccc2cc(NS(=O)(=O)c3cc(Cl)ccc3Cl)ccc2n1 [compound 937] |  | 36.6 | 

Row | SMILES | melting point [°C] | inhibition at 10 µM [1] [%] | other results
49 | COC(=O)c1cc2cc(NS(=O)(=O)c3cccc(Cl)c3C)ccc2s1 [compound 971] |  | 49.6 | 
50 | Cc1c(Cl)cccc1S(=O)(=O)Nc1ccc2nccnc2c1 [compound 957] |  | 55.5 | 
51 | Cc1c(Cl)cccc1S(=O)(=O)Nc1ccc2c(C)cc(=O)oc2c1 [compound 980] |  | 61.2 | 
52 | Cc1c(Cl)cccc1S(=O)(=O)Nc1ccc2c(cnn2C)c1 [compound 988] |  | 56 | 
53 | Cc1c(Cl)cccc1S(=O)(=O)Nc1ccc2c(c1)OCCO2 [compound 990] |  | 73.3 | 
54 | CC1(C)[C@@H](OC(=O)CCC(=O)O)CC[C@]2(C)[C@H]3C(=O)C=C4[C@@H]5C[C@@](C)(C(=O)O)CC[C@]5(C)CC[C@@]4(C)[C@]3(C)CC[C@@H]12 [carbenoxolone, Carbenoxolone, reference compound] |  |  | times more active than is suggested by Barf et al. [14] ([1]; 350 nM cortisone, 0.3% DMSO, RIA buffer (Buffer 3) (FIG. 23)): about 5 times
55 | CCCc1ccc(S(=O)(=O)Nc2ccc3oncc3c2)cc1 [compound 919] |  | 25.4 | 
56 | Cc1c(Cl)cccc1S(=O)(=O)Nc1ccc2[nH]ncc2c1 [compound 983] |  | 41.9 | 
57 | CCCc1ccc(S(=O)(=O)NCc2ccccn2)cc1 [compound 702] |  | 37.6 | 
58 | CC(=O)Nc1ccc(S(=O)(=O)Nc2cc(C)on2)cc1Cl [compound 645] |  | 42 | 
59 | Cc1cc(NS(=O)(=O)c2ccc(NS(=O)(=O)c3ccc(Cl)cc3Cl)cc2)no1 [compound 644] |  | 37.1 | 
60 | Cc1c(Cl)cccc1S(=O)(=O)Nc1ccc2scc(C)c2c1 [compound 1015] |  | 64.6 | 
61 | CCCc1ccc(S(=O)(=O)Nc2ccc(OC)nc2)cc1 [compound 577] |  | 54.6 | 
62 | Cc1ccc2cc(NS(=O)(=O)c3cccc(Cl)c3C)ccc2n1 [compound 935] |  | 20.7 | 
63 | Cc1noc2ccc(NS(=O)(=O)c3cc(Cl)ccc3Cl)cc12 [compound 876] |  | 23.6 | 
64 | COc1cc(C)c(S(=O)(=O)Nc2ccc(S(=O)(=O)NCCOS(=O)(=O)c3c(C)cc(OC)c(C)c3C)cc2)c(C)c1C [compound 652] |  | 31.8 | 
65 | Cc1cc2cc(NS(=O)(=O)c3cccc(Cl)c3C)ccc2o1 [compound 1038] |  | 28.7 | 
66 | Cc1nc2cc(CSc3cc(Cl)ccc3Cl)ccc2s1 [compound 1031] |  | 45.6 | 
67 | CCCc1ccc(S(=O)(=O)Nc2ccc3nccnc3c2)cc1 [compound 958] |  | 58.1 | 
68 | COc1ccc(S(=O)(=O)Nc2ccc(S(=O)(=O)Nc3cc(C)on3)cc2)cc1 [compound 555] |  | 53 | 
69 | CC(=O)Nc1ccc(S(=O)(=O)NNC(=O)CSc2ncnc3c(C)csc23)cc1 [compound 557] |  | 51.3 | 
70 | Cc1nc2cc(NC(=O)c3cc(Cl)cc(Cl)c3)ccc2s1 [compound 520] |  | 43.5 | 
